Some test systems named below: M14 melanoma; HT29 colon; UACC-257 melanoma; SF-268 CNS; HCT-15 colon; SK-MEL-2 melanoma; SNB-75 CNS; HOP-92 NSCLC; SK-MEL-5 melanoma; ACHN renal.
Common to all, as to assay: NCI tumour cell line growth inhibition, 48 h

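Assay format: 96-well plates, 48-hour exposure. GI50 is the concentration that inhibits growth by half. The concentration for full growth arrest is given as TGI.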

With `CCCCCCCCCCCCCC(=O)OCC1OC(n2cc(F)c(=O)[nH]c2=O)C(N)C(OC(=O)CCCCCCCCCCCCC)C1O` (stereo not given), the TGI in the assay with M14 melanoma, in the assay on HT29 colon, in the assay with UACC-257 melanoma, in the assay on SF-268 CNS, in the assay on HCT-15 colon and with SK-MEL-2 melanoma was greater than 100 µM throughout. In addition, the TGI in the assay on SNB-75 CNS, in the assay on HOP-92 NSCLC, with SK-MEL-5 melanoma and in the assay with ACHN renal was greater than 100 µM each time.

On to `CCOc1c(C#N)c2c(N)ncnc2n1C1OC(CO)C(O)C1O` (stereo not given), for which the GI50 is 1.92 µM in the assay with M14 melanoma; 2.89 µM in the assay on HT29 colon; 13.7 µM in the assay with UACC-257 melanoma; 3.37 µM in the assay on SF-268 CNS; 2.15 µM in the assay on HCT-15 colon; 8.61 µM in the assay on SK-MEL-2 melanoma. In addition, the GI50 in the assay with SNB-75 CNS is 5.61 µM; with HOP-92 NSCLC, 2.82 µM; with SK-MEL-5 melanoma it was 3.79 µM; with ACHN renal it was 2.95 µM. Further, the TGI is 5.57 µM in the assay on M14 melanoma; greater than 34.1 µM in the assay on HT29 colon; greater than 77.3 µM with UACC-257 melanoma; 65.4 µM in the assay with SF-268 CNS; greater than 100 µM in the assay on HCT-15 colon; 28.3 µM in the assay with SK-MEL-2 melanoma. Moreover, the TGI in the assay on SNB-75 CNS was greater than 76 µM; in the assay on HOP-92 NSCLC, greater than 100 µM; with SK-MEL-5 melanoma it was 16.6 µM; with ACHN renal it was greater than 100 µM.

Regarding `COc1cc(/C=C\c2cc(/C=C\c3ccc(O)c(OC)c3)n(C(=O)CNc3ccc(Cl)cc3)n2)ccc1O`, the GI50 in the assay with M14 melanoma was 2.89 µM; in the assay with HT29 colon, 3 µM; in the assay with UACC-257 melanoma it was 5.17 µM; in the assay with SF-268 CNS, 2.49 µM; with HCT-15 colon it was 2.54 µM; in the assay on SK-MEL-2 melanoma it was 3.97 µM. In addition, the GI50 is 2.84 µM in the assay on SNB-75 CNS, 5.65 µM with HOP-92 NSCLC, 3.24 µM with SK-MEL-5 melanoma and 0.628 µM with ACHN renal. Further, the TGI came out at 15.5 µM in the assay with M14 melanoma; 9.27 µM with HT29 colon; 17.7 µM with UACC-257 melanoma; 14.9 µM in the assay with SF-268 CNS; 12.2 µM in the assay on HCT-15 colon; 18.8 µM in the assay with SK-MEL-2 melanoma. The TGI in the assay on SNB-75 CNS was 13 µM; in the assay with HOP-92 NSCLC, 24.2 µM; in the assay with SK-MEL-5 melanoma it was 11.3 µM; with ACHN renal, 14.9 µM.

(Values after PubChem BioAssay (NCI).)
